Experimental data from PMC6820371, “Terbium-161 for PSMA-targeted radionuclide therapy of prostate cancer” (European Journal of Nuclear Medicine and Molecular Imaging, 2019).
Like-named read-outs stand apart in the source and are kept apart here.

What was measured:
[1] = n-octanol/PBS distribution coefficient (logD), shake-flask method; assay type: physicochemical; conditions: PBS pH 7.4
Protocol: The radiolabeling of PSMA-617 (Advanced Biochemical Compounds, ABX GmbH, Radeberg, Germany) with ^161Tb was performed under standard labeling conditions (Supplementary material). […] The n-octanol/PBS distribution coefficient (logD) was determined for ^161Tb-PSMA-617 (Supplementary material). All of these experiments were performed as previously reported for ^177Lu-PSMA-617 [27].
It was diluted in PBS pH 7.4 (∼500 kBq, 25 µL, 0.01 nmol) and added to polypropylene tubes containing 1475 µL PBS and 1500 µL n-octanol followed by vigorous vortexing for 1 min. Phase separation was obtained by centrifugation at 1200 rcf for 6 min. The distribution coefficients were calculated as the logarithm of the ratio of counts per minute (cpm) measured in the n-octanol phase relative to the cpm measured in the PBS pH 7.4 phase using a γ-counter (Perkin Elmer, Wallac Wizard 1480). At least three experiments were performed in quintuplicate.

[2] = system: PC-3 PIP/flu tumor-bearing mice; conditions: for Biodistribution: Blood / Biodistribution: Bone / Biodistribution: Heart / Biodistribution: Intestines / Biodistribution: Kidneys / Biodistribution: Liver / Biodistribution: Lung / Biodistribution: Muscle / Biodistribution: PC-3 PIP tumor / Biodistribution: PC-3 flu tumor / Biodistribution: Salivary glands / Biodistribution: Spleen / Biodistribution: Stomach: 5.0 MBq, 1 nmol i.v.; for Tumor-to-blood / Tumor-to-kidney / Tumor-to-liver: PC-3 PIP tumor
Protocol: Biodistribution studies were performed 12–14 days after tumor cell inoculation when the tumor xenografts reached an average tumor volume of about ~50–200 mm^3 (Supplementary material). PSMA-617 was labeled with ^161Tb at a specific activity of 5.0 MBq/nmol and diluted in saline. […] The mice were sacrificed at 1 h, 4 h, 24 h, 48 h, or 96 h post injection (p.i.) and selected tissues and organs were collected, weighed, and measured using a γ-counter (Perkin Elmer, Wallac Wizard 1480). Groups of 3–5 mice were sacrificed at each time point. The results were decay-corrected and listed as percentage of the injected activity per gram of tissue mass (% IA/g). Data are presented as the average ± standard deviation (SD).
A p-value of < 0.05 was considered statistically significant.
Biodistribution studies were performed 12–14 days after tumor cell inoculation. The experimental procedure of the biodistribution studies is described in the main manuscript.

[3] = system: mice inoculated with PC-3 PIP cells; assay: Additional therapy study (injection 2 days after tumor cell inoculation); assay type: in vivo; conditions: for Median Survival: control 26 days
Protocol: The day of the treatment, two days after tumor cell inoculation, was defined as Day 0 of the study (Table S7).
Endpoint criteria: The mice were monitored until they reached an endpoint (definition of endpoints, see Chapter 13) or over the whole period of 38 days when the study was terminated.
Data analysis of the therapy study: The tumor growth delay indices (TGDI2 and TGDI5) were calculated as reported in the Methods of the main manuscript. The median survival was determined using GraphPad Prism software (version 7).

Structure (SMILES): O=C([O-])CN1CCN(CC(=O)[O-])CCN(CC(=O)NCC2CCC(C(=O)NC(Cc3ccc4ccccc4c3)C(=O)NCCCCC(NC(=O)NC(CCC(=O)O)C(=O)O)C(=O)O)CC2)CCN(CC(=O)[O-])CC1.[161Tb+3] (stereo not shown) [^161Tb-PSMA-617]
- n-octanol/PBS distribution coefficient (logD value) [1]: −3.9 ± 0.1
- Biodistribution: Blood ([2]; 1 h p.i.): 0.49 ± 0.16 %IA/g
- Biodistribution: Bone ([2]; 1 h p.i.): 0.21 ± 0.07 %IA/g
- Biodistribution: Heart ([2]; 1 h p.i.): 0.21 ± 0.05 %IA/g
- Biodistribution: Intestines ([2]; 1 h p.i.): 0.26 ± 0.05 %IA/g
- Biodistribution: Kidneys ([2]; 1 h p.i.): 9.6 ± 1.3 %IA/g
- Biodistribution: Liver ([2]; 1 h p.i.): 0.28 ± 0.05 %IA/g
- Biodistribution: Lung ([2]; 1 h p.i.): 0.66 ± 0.28 %IA/g
- Biodistribution: Muscle ([2]; 1 h p.i.): 0.13 ± 0.06 %IA/g
- Biodistribution: PC-3 PIP tumor ([2]; 1 h p.i.): 44 ± 5.3 %IA/g
- Biodistribution: PC-3 flu tumor ([2]; 1 h p.i.): 0.39 ± 0.18 %IA/g
- Biodistribution: Salivary glands ([2]; 1 h p.i.): 0.28 ± 0.13 %IA/g
- Biodistribution: Spleen ([2]; 1 h p.i.): 0.54 ± 0.08 %IA/g
- Biodistribution: Stomach ([2]; 1 h p.i.): 0.22 ± 0.05 %IA/g
- Tumor-to-blood ([2]; 1 h p.i.): 99 ± 27
- Tumor-to-kidney ([2]; 1 h p.i.): 4.7 ± 0.5
- Tumor-to-liver ([2]; 1 h p.i.): 163 ± 23
- Biodistribution: Blood ([2]; 4 h p.i.): 0.08 ± 0.01 %IA/g
- Biodistribution: Bone ([2]; 4 h p.i.): 0.09 ± 0.02 %IA/g
- Biodistribution: Heart ([2]; 4 h p.i.): 0.05 ± 0.01 %IA/g
- Biodistribution: Intestines ([2]; 4 h p.i.): 0.06 ± 0.01 %IA/g
- Biodistribution: Kidneys ([2]; 4 h p.i.): 2.9 ± 0.14 %IA/g
- Biodistribution: Liver ([2]; 4 h p.i.): 0.17 ± 0.02 %IA/g
- Biodistribution: Lung ([2]; 4 h p.i.): 0.11 ± 0.01 %IA/g
- Biodistribution: Muscle ([2]; 4 h p.i.): 0.03 ± 0.00 %IA/g
- Biodistribution: PC-3 PIP tumor ([2]; 4 h p.i.): 49 ± 5.5 %IA/g
- Biodistribution: PC-3 flu tumor ([2]; 4 h p.i.): 0.13 ± 0.02 %IA/g
- Biodistribution: Salivary glands ([2]; 4 h p.i.): 0.07 ± 0.01 %IA/g
- Biodistribution: Spleen ([2]; 4 h p.i.): 0.13 ± 0.01 %IA/g
- Biodistribution: Stomach ([2]; 4 h p.i.): 0.08 ± 0.01 %IA/g
- Tumor-to-blood ([2]; 4 h p.i.): 640 ± 132
- Tumor-to-kidney ([2]; 4 h p.i.): 17 ± 1.6
- Tumor-to-liver ([2]; 4 h p.i.): 302 ± 64
- Biodistribution: Blood ([2]; 24 h p.i.): 0.03 ± 0.00 %IA/g
- Biodistribution: Bone ([2]; 24 h p.i.): 0.09 ± 0.01 %IA/g
- Biodistribution: Heart ([2]; 24 h p.i.): 0.03 ± 0.00 %IA/g
- Biodistribution: Intestines ([2]; 24 h p.i.): 0.03 ± 0.00 %IA/g
- Biodistribution: Kidneys ([2]; 24 h p.i.): 1.1 ± 0.09 %IA/g
- Biodistribution: Liver ([2]; 24 h p.i.): 0.11 ± 0.02 %IA/g
- Biodistribution: Lung ([2]; 24 h p.i.): 0.11 ± 0.09 %IA/g
- Biodistribution: Muscle ([2]; 24 h p.i.): 0.02 ± 0.00 %IA/g
- Biodistribution: PC-3 PIP tumor ([2]; 24 h p.i.): 43 ± 5.5 %IA/g
- Biodistribution: PC-3 flu tumor ([2]; 24 h p.i.): 0.08 ± 0.01 %IA/g
- Biodistribution: Salivary glands ([2]; 24 h p.i.): 0.05 ± 0.01 %IA/g
- Biodistribution: Spleen ([2]; 24 h p.i.): 0.08 ± 0.01 %IA/g
- Biodistribution: Stomach ([2]; 24 h p.i.): 0.04 ± 0.00 %IA/g
- Tumor-to-blood ([2]; 24 h p.i.): 1668 ± 302
- Tumor-to-kidney ([2]; 24 h p.i.): 43 ± 10
- Tumor-to-liver ([2]; 24 h p.i.): 383 ± 65
- Biodistribution: Blood ([2]; 48 h p.i.): 0.02 ± 0.00 %IA/g
- Biodistribution: Bone ([2]; 48 h p.i.): 0.05 ± 0.01 %IA/g
- Biodistribution: Heart ([2]; 48 h p.i.): 0.03 ± 0.00 %IA/g
- Biodistribution: Intestines ([2]; 48 h p.i.): 0.02 ± 0.00 %IA/g
- Biodistribution: Kidneys ([2]; 48 h p.i.): 0.58 ± 0.05 %IA/g
- Biodistribution: Liver ([2]; 48 h p.i.): 0.12 ± 0.01 %IA/g
- Biodistribution: Lung ([2]; 48 h p.i.): 0.04 ± 0.01 %IA/g
- Biodistribution: Muscle ([2]; 48 h p.i.): 0.01 ± 0.00 %IA/g
- Biodistribution: PC-3 PIP tumor ([2]; 48 h p.i.): 28 ± 4.1 %IA/g
- Biodistribution: PC-3 flu tumor ([2]; 48 h p.i.): 0.06 ± 0.01 %IA/g
- Biodistribution: Salivary glands ([2]; 48 h p.i.): 0.03 ± 0.00 %IA/g
- Biodistribution: Spleen ([2]; 48 h p.i.): 0.07 ± 0.00 %IA/g
- Biodistribution: Stomach ([2]; 48 h p.i.): 0.03 ± 0.00 %IA/g
- Tumor-to-blood ([2]; 48 h p.i.): 1346 ± 166
- Tumor-to-kidney ([2]; 48 h p.i.): 49 ± 7.2
- Tumor-to-liver ([2]; 48 h p.i.): 229 ± 30
- Biodistribution: Blood ([2]; 96 h p.i.): 0.01 ± 0.00 %IA/g
- Biodistribution: Bone ([2]; 96 h p.i.): 0.06 ± 0.01 %IA/g
- Biodistribution: Heart ([2]; 96 h p.i.): 0.02 ± 0.00 %IA/g
- Biodistribution: Intestines ([2]; 96 h p.i.): 0.12 ± 0.12 %IA/g
- Biodistribution: Kidneys ([2]; 96 h p.i.): 0.40 ± 0.04 %IA/g
- Biodistribution: Liver ([2]; 96 h p.i.): 0.10 ± 0.00 %IA/g
- Biodistribution: Lung ([2]; 96 h p.i.): 0.03 ± 0.00 %IA/g
- Biodistribution: Muscle ([2]; 96 h p.i.): 0.01 ± 0.00 %IA/g
- Biodistribution: PC-3 PIP tumor ([2]; 96 h p.i.): 22 ± 4.3 %IA/g
- Biodistribution: PC-3 flu tumor ([2]; 96 h p.i.): 0.04 ± 0.01 %IA/g
- Biodistribution: Salivary glands ([2]; 96 h p.i.): 0.03 ± 0.00 %IA/g
- Biodistribution: Spleen ([2]; 96 h p.i.): 0.07 ± 0.01 %IA/g
- Biodistribution: Stomach ([2]; 96 h p.i.): 0.66 ± 1.01 %IA/g
- Tumor-to-blood ([2]; 96 h p.i.): 2053 ± 412
- Tumor-to-kidney ([2]; 96 h p.i.): 56 ± 9.7
- Tumor-to-liver ([2]; 96 h p.i.): 224 ± 33
- First mouse euthanized ([3]; 2.5 MBq): 26 days
- TGDI2 ([3]; 2.5 MBq): 1.0 ± 0.4
- TGDI5 ([3]; 2.5 MBq): 1.2 ± 0.3
- Median Survival ([3]; 2.5 MBq): 31 days
- Last mouse euthanized ([3]; 2.5 MBq, study end Day 38): study end
- First mouse euthanized ([3]; 5.0 MBq): 30 days
- TGDI2 ([3]; 5.0 MBq): 1.6 ± 0.4
- Median Survival ([3]; 5.0 MBq): 34 days
- Last mouse euthanized ([3]; 5.0 MBq, study end Day 38): study end
- Survival ([3]; 10 MBq): survived until the end of the study at Day 38
- Cases in which tumors started to grow ([3]; 10 MBq, from Day 25 and Day 35 on): 2 of 8
- First mouse euthanized ([3]; 10 MBq, study end Day 38): study end
- Last mouse euthanized ([3]; 10 MBq, study end Day 38): study end
